# Test results published in PubChem BioAssay (NCI).
# Several values for one entry are separate records, joined by “and”; a condition that tells them apart may be missing. Equal entries are not always repeated.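 Five compound concentrations were applied to cells in 96-well plates for 48 hours; endpoints were derived by simple linear interpolation of the resulting dose-response curve. GI50 marks 50% less growth. TGI marks complete inhibition of growth.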
# Experiments:
# Test in all cases: NCI anticancer screen, dose series, 48 h
# [1] = test system: SK-MEL-28 melanoma
# [2] = test system: CCRF-CEM leukemia
# [3] = test system: HT29 colon
# [4] = test system: MOLT-4 leukemia
# [5] = test system: UACC-257 melanoma
# [6] = test system: MDA-MB-435
# [7] = test system: MCF7 breast
# [8] = test system: UACC-62 melanoma
Compound,GI50 [1],TGI [1],GI50 [2],TGI [2],GI50 [3],TGI [3],GI50 [4],TGI [4],GI50 [5],TGI [5],GI50 [6],TGI [6],GI50 [7],TGI [7],GI50 [8],TGI [8]
Cc1cc(C)c(NC(=O)c2sc3nc4c(cc3c2N)CN(Cc2ccccc2)CC4)c(C)c1,6.97 µM,40.4 µM,3.16 µM,59.7 µM,2880 nM,13.2 µM,4150 nM,> 100 µM,6.71 µM,> 100 µM,399 nM,4.38 µM,1610 nM,32.2 µM,3900 nM,42.4 µM
CN(CCO)c1ccc(N2Cc3ccccc3OC3=C2C(=O)c2c(O)ccc(O)c2C3=O)cn1,0.246 µM,0.611 µM,0.0566 µM,0.548 µM,172 nM,0.468 µM,135 nM,1.19 µM,0.277 µM,0.791 µM,215 nM,0.478 µM,63.8 nM,0.31 µM,210 nM,0.498 µM
O=S(=O)(Nc1ccc(F)cc1F)c1ccc(-c2cnc(C3CC3)o2)cc1,13.1 µM,> 71.9 µM,0.856 µM,> 100 µM,381 nM,15.2 µM,652 nM,> 70.1 µM,10.3 µM,51.8 µM,140 nM,2.72 µM,398 nM,> 55.9 µM,358 nM,23.3 µM
COc1ccc(-c2ccc(-c3ccc(C(=N)N)s3)s2)cc1,0.187 µM,0.348 µM,0.208 µM,0.485 µM,181 nM,0.375 µM,315 nM,0.849 µM,0.746 µM,1.68 µM,179 nM,0.336 µM,,,188 nM,0.357 µM
NC(=O)OCCn1cc(-c2nc(-c3c[nH]c4ncccc34)cs2)c2ccccc21,2.05 µM,14.8 µM,2.65 µM,16.9 µM,1770 nM,8.55 µM,2190 nM,8.61 µM,2.08 µM,7.88 µM,,,989 nM,5.31 µM,1570 nM,5.41 µM
CCN(Cc1ccccc1C)c1ccc(CO)c(Cl)c1,13.2 µM,27.8 µM,15.5 µM,38.2 µM,9970 nM,26.3 µM,15800 nM,39.2 µM,0.278 µM,1.67 µM,3670 nM,15.4 µM,2000 nM,14.7 µM,423 nM,6.27 µM
NCCSc1nc(-c2ccccc2)c(-c2ccccc2)o1,,> 100 µM,,,,> 100 µM,,,,> 100 µM,,> 100 µM,,> 100 µM,,> 100 µM
CN1C(=O)/C(=C/c2c(Cl)n(C)c3ccccc23)c2ccccc21,5.24 µM and 1.62 µM,3.05 µM,,> 100 µM,4370 nM and 5570 nM,17.8 µM,1880 nM and 245 nM,0.756 µM,4.53 µM,,1890 nM and 1690 nM,4 µM and 3.13 µM,3020 nM and 2150 nM,> 100 µM,2800 nM,
C1=C\COCc2cc(ccc2OCCN2CCCC2)Nc2nccc(n2)-c2cccc(c2)COC/1,2.1 µM,5.33 µM,2.56 µM,7 µM,1180 nM,5.04 µM,1330 nM,4.9 µM,2.53 µM,5.66 µM,1530 nM,4.65 µM,772 nM,3.37 µM,2020 nM,5.2 µM
O[C@H](c1cc(C(F)(F)F)nc2c(C(F)(F)F)cccc12)[C@@H]1CCCCN1,2.29 µM,5.63 µM,8.52 µM,40.7 µM,2490 nM,5.98 µM,3510 nM,11.1 µM,3.84 µM,9.11 µM,2430 nM,7.07 µM,2460 nM,6.8 µM,5900 nM,17.5 µM
O=C1NC(=NCCc2cccc(Cl)c2)S/C1=C\c1ccc2ncccc2c1,> 25 µM,> 25 µM,> 25 µM,> 25 µM,> 25000 nM,> 25 µM,> 25000 nM,> 25 µM,> 25 µM,> 25 µM,635 nM,> 25 µM,,,> 25000 nM,> 25 µM
CCn1sc2ccccc2c1=O,,36 µM,,> 48.2 µM,,34 µM,,> 100 µM,,32.7 µM,,5.82 µM,,26.8 µM,,29.5 µM
COc1cc2c3c(n(CCCOC(=O)C(F)(F)F)c(=O)c2cc1OC)-c1cc2c(cc1C3=O)OCO2,,> 100 µM,< 0.01 µM,> 100 µM,,> 35.1 µM,,,,,23.2 nM,3.69 µM,,> 29.2 µM,< 10 nM,
Cc1[nH]c(/C=C2\C(=O)Nc3ccccc32)c(C)c1CCC(=O)O,25.4 µM,80 µM and 92.6 µM,28.3 µM,> 100 µM,27000 nM,> 80.8 µM,26500 nM,69.4 µM and 84.4 µM,20.4 µM,63 µM and 81.1 µM,23500 nM,84.2 µM and > 100 µM,23900 nM,> 100 µM,17700 nM,58.1 µM and 95.6 µM
O=C(c1ccc(/C=C/c2n[nH]c3ccccc23)cc1)N1CCNCC1,1.71 µM and 5.99 µM,3.34 µM and 19.8 µM,6.03 µM and 10.4 µM,> 10 µM and 75.8 µM,2040 nM and 2440 nM,4.77 µM and 15.3 µM,2260 nM and 2270 nM,5.79 µM and 36.3 µM,1.76 µM and 7.57 µM,3.3 µM and 21 µM,1540 nM and 2580 nM,2.9 µM and 15.5 µM,,2.46 µM and 15.5 µM,1720 nM and 11300 nM,3.83 µM and 24.8 µM
O=C(CSC1CCc2ccccc21)N/N=C/c1ccccc1O (centres undefined),4.72 µM,> 100 µM,1.64 µM,45.4 µM,18300 nM,52.6 µM,3790 nM,56.7 µM,,,5870 nM,> 100 µM,2890 nM,> 100 µM,2820 nM,13.6 µM
COc1ncc(-c2ccc3ncnc(Nc4cccc(Cl)c4)c3c2)cc1NS(=O)(=O)C1CC1,> 100 µM,> 100 µM,> 100 µM,> 100 µM,,,,,,,> 100000 nM,> 100 µM,,,,
